Here are results for two molecules from patent US20110217290A1, “TREATMENT AND/OR PREVENTION OF PEANUT INDUCED ANAPHYLAXIS” (priority 2009, published 2011).

One assay concerns albumin in the PL fluid. The assay can be described thus: Vascular leakage: albumin content in PL fluid after peanut challenge. The class given is in vivo, C57BL/6 mice. As to conditions: PAF-R antagonist; following peanut challenge. From the text: During the course of a systemic anaphylactic reaction vasodilatation and hypotension are often associated with excessive vascular permeability and fluid extravasations.

The subject of assay [1] is peanut-sensitized mice. The assay can be described thus: Mathematical model grading severity of the anaphylactic response (AU39° C., AU35° C., events under 35° C.). The class given is in vivo, C57BL/6 mice. The protocol:
In an effort to more comprehensively grade the anaphylactic response, three measures of severitywere utilized: global, moderate and life-threatening severity. To facilitate the assessment of severity, a mathematical model that describes the overall behavior of the anaphylactic response for each experimental group was developed. Using mean experimental data for untreated mice, an equation was derived that represents the pattern in core temperature up to 120 minutes following challenge. The same equation was then fit to the other experimental group (mice treated with PAF-R antagonist) to derive a numerical coefficient that accurately depicts the respective response. (FIG. 3 E). These equations were subsequently used to generate modeled data. Actual and modeled data were validated through linear regression, yielding R^2 values of greater than 0.99 for both untreated and treated groups (FIG. 3 F). Thus, the response for each experimental group can be expressed with a mathematical representation that can be used to assess the overall degree of the anaphylactic response. Global severity was defined as the area of the response under 39° C. (AU39° C.), while life-threatening severity was depicted as the area of the response under 35° C. (AU35° C.; FIG. 3 F). Moderate severity was deemed as the difference between global and life-threatening severity (AU39° C.-AU35° C.; FIG. 3 F). Given that these areas (i.e. AU39° C. and AU35° C.) were calculated using mean temperatures at each time point, they describe the overall trend of the response. […] In other words, the AU35° C. is not representative of those mice that experienced life-threatening anaphylaxis exclusively but rather encompasses the response of the entire population. Therefore, the concept of life-threatening severity was modified to consider only the number of mice whose temperature fell below 35° C. at any time point (expressed as ‘events under 35° C.’). In addition, the duration of life-threatening conditions was determined by calculating the time at which each response was below 35° C. (FIG. 3 F).
The potential adjuvant effect of antihistamines in the treatment of PIA was assessed. Peanut-sensitized mice were treated with a PAF-R antagonist along with H1 and H2 receptor antagonists and monitored them for 120 min following challenge. FIG. 4 illustrates that concomitant treatment with PAF-R antagonist and anti-histamines prevents life-threatening and prolonged peanut-induced anaphylactic reactions. […] One week after the last sensitization, separate groups of mice were treated as follows: (A) appropriate drug vehicle (B) PAF-R antagonist [50 mg/Kg], ABT-491] orally 1 h prior to CPE challenge. (C) histamine receptor antagonists mepyramine [3 mg/kg] and cimetadine [10 mg/Kg] (for H1 receptor and H2 receptor, respectively) i.v. 30 min prior to CPE challenge (D) The last group of mice was administered the treatments described in B and C concurrently. Pooled data from two independent experiments are shown (n=6/experiment). *, P<0.05 relative to time 0. ns, not significant. […] (E) The accuracy of the model was quantified using linear regression. Using the equation from the model, global severity was defined as the area between the response and 39 (area under 39° C. (AU39° C.)) while life-threatening severity was defined as the area of the response under 35° C. (AU35° C.). Since these areas were calculated using mean temperatures at each time point, they describe the overall trend of the response. […]

Assay [2] concerns peanut-sensitized mice.
Assay [3] deals with cysteinyl leukotrienes (CysLTC). As to the kind of experiment: Plasma cysteinyl leukotrienes after peanut challenge (enzyme immunoassay). The class given is in vivo, C57BL/6 mice. The protocol:
Blood from control and sensitized mice was collected in K2-EDTA containing tubes at the indicated time points following i.p challenge with CPE and plasma was analyzed for (E) histamine and (F) CysLTC levels. Histamine and leukotriene levels were determined in plasma at different time points following challenge using enzyme immunoassay kits (Beckman Coulter Canada, Inc, Mississauga, and Cedarlane Laboratories Ltd, Hornby, Canada, respectively) according to the manufacture's specifications. Plasma was obtained using K2-EDTA containing tubes (BD Biosciences, Mississauga, ON, Canada). Graphs show mean values±SEM from three to five independent experiments; n=8-12 mice per group. * P<0.05 relative to control. The kinetics of mediator production is distinct. […] These findings indicate that oral sensitization with peanut results in a significant increase in the number of peritoneal mast cells and FcεRI surface expression likely contributing to the massive release of vasoactive mediators following challenge with peanut.
(for H1 receptor and H2 receptor, respectively) i.v. 30 minutes prior to CPE challenge. […] Histamine (C) and (G) and leukotriene (D) and (H) levels from each of the experimental groups above were analyzed in plasma 40 min following CPE challenge. […]

Consider `C#Cc1cccc2c1c(C(=O)c1ccc(Cn3c(C)nc4cnccc43)c(F)c1)cn2C(=O)N(C)C` [ABT-491], for which, in the assay on albumin in the PL fluid, the “decrease in the content of albumin in the PL fluid of treated mice compared to untreated mice (vascular leakage)” value came to 57%. In the assay on peanut-sensitized mice [1] (PAF-R antagonist 50 mg/Kg orally vs. untreated, up to 120 min following challenge, FIG. 3 F), the “decrease in global severity (AU39° C.)” value is on record as “approximately 50%”. Further, the “less time under life-threatening conditions (below 35° C.) compared to untreated mice” value in the assay on peanut-sensitized mice [1] (PAF-R antagonist 50 mg/Kg orally, FIG. 3 F) is reported as “approximately 75%”. In addition, the “number of 'events under 35° C.'” value in the assay with peanut-sensitized mice [1] (PAF-R antagonist 50 mg/Kg orally, untreated 133, FIG. 3 F) is on record as 41; with peanut-sensitized mice [1] (treatments as, 120 min, untreated 75, FIG. 4 E) it was 16. Moreover, the “effect on moderate severity (AU39° C.-AU35° C.)” value in the assay with peanut-sensitized mice [1] (treatments as, up to 120 min, FIG. 4 E) is “partial effect”. In addition, the “development of seizures (convulsions)” value in the assay with peanut-sensitized mice [2] (ABT-491 50 mg/Kg orally 1 h prior to challenge, 15% of untreated mice developed convulsions) is listed as “no seizures were observed”. Moreover, the “recovery from the anaphylactic reaction” value in the assay on peanut-sensitized mice [2] (ABT-491 50 mg/Kg orally 1 h prior to challenge, monitored 120 min, FIGS. 3 C and D) is reported as “significantly accelerated”. For the same molecule, in the assay on peanut-sensitized mice [2] (ABT-491 50 mg/Kg orally 1 h prior to challenge, no: score 0, 37.5-40° C., mild: score ≦2, 34.5-37.5° C.), the “treated mice that developed either no or mild anaphylactic reactions” value is recorded as roughly 50%. Further, in the assay on peanut-sensitized mice [2] (ABT-491 50 mg/Kg orally 1 h prior to challenge, untreated 43%, FIG. 3 C), the “mice that reached recovery temperature (37° C.) within 120 min following challenge” value amounted to 83%. Also, the “mice that dropped their core temperature by more than 4° C.” value in the assay with peanut-sensitized mice [2] (ABT-491 50 mg/Kg orally 1 h prior to challenge, untreated 87%) was 48%. Besides, the “mice that died within 48 h following challenge” value in the assay with peanut-sensitized mice [2] (ABT-491 50 mg/Kg orally 1 h prior to challenge, untreated approximately 20%) was “none”. Further, the “mice that experienced severe hypothermia 120 min following challenge” value in the assay on peanut-sensitized mice [2] (ABT-491 50 mg/Kg orally 1 h prior to challenge, untreated approximately 30%) was determined as 9%. The “levels of Cysts in plasma following challenge with peanut” value in assay [3] (PAF-R antagonist treated, untreated 570.2±237.3, mean±SEM) was found to be 187.3 ± 96.9 pg/mL.
Take `CC(c1cc2ccccc2s1)N(O)C(N)=O` (stereo not shown) [Zileuton]: the “impact on the extent and/or kinetics of peanut-induced anaphylactic reactions” value with peanut-sensitized mice [2] (Zileuton 50 mg/Kg oral gavage twice, 12 h and 1 h prior to i.p. CPE challenge, 40 min, FIGS. 2 A and B) was “did not have an impact”. Besides, in assay [3] (Zileuton 50 mg/Kg oral, 12 h and 1 h prior to challenge, plasma 40 min following CPE challenge, FIG. 2 D), the “leukotrienes in plasma from treated mice” value is on record as “nearly undetected”.
